Measurements as given in the METLIN SMRT retention time set (Domingo-Almenara et al. 2019).

Assay: gradient 5% acetonitrile 3 min, to 50% in 2 min, to 85% in 15 min, held 3 min, 100 µL/min
Conditions: column: Zorbax Extend-C18 2.1 x 50 mm; eluents: water / acetonitrile, 0.1% formic acid
Procedure, shortened: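 Values are retention times taken from adduct peaks that software picked and an analyst inspected. The pure standards were run as mixtures of ~100 molecules on HPLC linked to a quadrupole time-of-flight mass spectrometer, in positive and negative ionization mode. A Zorbax Extend-C18 column (2.1 × 50 mm, 1.8 μm) was used at 100 μL/min with water and acetonitrile, each including 0.1% formic acid.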

Row | Structure (SMILES) | RP-LC retention time [s]
1 | O=C(NCc1ccc(F)c(Cl)c1)c1sc2ncccc2c1-n1cccc1 | 1050
2 | O=C(NCCc1c[nH]c2ccccc12)C1COc2ccccc2O1 (stereo unspecified) | 866
3 | CN1CCN(c2cc(-c3nc(-c4ccc(Cl)cc4)no3)c3ccccc3n2)CC1 | 881
4 | CCCCS(=O)(=O)N1CC(c2noc(-c3cccnc3)n2)C2(CCOCC2)C1 (stereo unspecified) | 788
5 | Cc1nnc(NC(=O)CN2CCC(c3nnc(C(F)(F)F)o3)CC2)s1 | 545
6 | NS(=O)(=O)c1ccc(NC(=O)c2cnc3ccccn3c2=O)cc1 | 610
7 | CN1CCC2(CCN3CCc4c(oc5ccccc45)C3C2)N(C)C1=O (stereo unspecified) | 615
8 | O=C(Cc1cccc(F)c1)Nc1cc(-c2cccs2)no1 | 947
9 | O=C(COC(=O)C(c1ccccc1)c1ccccc1)Nc1ccc2c(c1)OCO2 | 940
10 | CCc1nc(-c2csc(S(=O)(=O)N3CCC(C(=O)N4CCCCCC4)CC3)c2)no1 | 955
11 | Cc1ccccc1-n1c(-c2ccc(Cl)cc2)cn2c3c(=O)n(C)c(=O)n(C)c3nc12 | 1020
12 | COc1ccc(-c2noc(-c3cccn4c(=O)c5ccccc5nc34)n2)cc1OC | 994
13 | CN(C)C(=O)c1nc2ccccn2c1-c1ccsc1 | 595
14 | NC(=O)Cn1c(Cc2ccccc2Cl)nc2ccccc21 | 591
15 | Cc1nc(-c2cccc(NC(=O)Cc3csc(Nc4ncccn4)n3)c2)cs1 | 731
16 | CCOc1ccc(CN(CC)Cc2cc(=O)n3cc(Cl)ccc3n2)cc1 | 654
17 | Cc1ccc(Nc2c(-c3c(F)cccc3Cl)nc3ccc(Br)cn23)cc1 | 985
18 | Cc1ccc(-c2noc(-c3nnn4c3COC(c3ccc(Cl)cc3)C4)n2)cc1 (stereo unspecified) | 1310
19 | O=S(=O)(c1cccc(C(F)(F)F)c1)N1CCc2nc(-c3ccccc3)ncc2C1 | 1140

Row | Structure (SMILES) | RP-LC retention time [s]
20 | CN1CCN(S(=O)(=O)c2ccc(C#N)cc2)CC1c1ccccc1 (stereo unspecified) | 528
21 | COc1cc(OC)cc(-c2cc3cnc(N)nc3nc2NC(=O)NC(C)(C)C)c1 | 814
22 | CC1(C(=O)NC2CCCC2)CC(c2ccccc2)=NO1 (stereo unspecified) | 700
23 | COC(=O)C(C)Sc1nc2c(c(=O)n1-c1ccc(OC(F)(F)F)cc1)SCC2 (stereo unspecified) | 949
24 | COc1c2c(cc3c1OCO3)CCN(C)C2 | 598
25 | CC(C)NC(=O)c1ccc(C(C)C)cc1 | 918
26 | C[C@H]1CN(C(=O)c2ccc(F)cc2)C[C@@H]1c1nc(-c2ccccc2)no1 | 996
27 | Cc1cccc(OCCCn2c(CO)nc3ccccc32)c1 | 678
28 | CCc1cc(-c2csc(S(=O)(=O)NCc3ccc(Br)cc3)c2)on1 | 1020
29 | CN(C)S(=O)(=O)c1ccc(-c2nnc(C(=O)N3CCC4(CC3)OCCO4)o2)cc1 | 746
30 | CC(C)(Cc1c[nH]c2ccccc12)NCC(O)COc1ccccc1C#N (stereo unspecified) | 757
31 | CCN(C(=O)c1cccs1)c1nc(-c2ccccc2)cs1 | 1220
32 | CCn1cc(-c2ccc(Cl)cc2)cc1C(=O)N1CCC2(CC1)OCCO2 | 1040
33 | COC(=O)c1c(NCc2ccccc2Br)c2cc(F)ccc2[nH]c1=O | 787
34 | CC(NC(=O)c1ccco1)c1nc(-c2ccc(Oc3ccccc3)cc2)no1 (stereo unspecified) | 1030
35 | COc1ccc(-n2c(=O)n(C)c(=O)c3cc(C(=O)NC(C)c4ccccc4)cnc32)cc1 (stereo unspecified) | 871
36 | Cc1noc(C)c1-c1ccc(S(=O)(=O)Nc2ccc(S(N)(=O)=O)cc2)cc1 | 756
37 | COCCn1cc(C(=O)Nc2ccccc2)c2nn(-c3ccccc3)c(=O)c-2c1 | 937
38 | COCC(=O)NC1CCC12CCN(C(=O)C1CC1)CC2 (stereo unspecified) | 619

Results, then the molecule that gave them:

Row | RP-LC retention time [s] | Structure (SMILES)
39 | 739 | CC(C)c1noc(COC2CCN(C(=O)NCc3ccco3)CC2)n1
40 | 695 | Cc1ccc(NC(=O)Nc2cnn(-c3ncncc3N3CCOCC3)c2)cc1Cl
41 | 732 | Cc1ccc(NC(=O)C2CCN(S(=O)(=O)c3ccc4c(c3)NC(=O)CO4)CC2)c(C)c1
42 | 593 | CC1CCCCN1CCN(CCC(=O)N1CCNCC1)C(=O)c1ccc(C(C)(C)C)cc1 (stereo unspecified)
43 | 606 | O=C(NCCN1CCOCC1)c1cc2n(n1)CCCN(Cc1ccc(F)cc1)C2=O
44 | 675 | CCOC(=O)CCNC(=O)N1CCN(Cc2nc3cc(-c4ccccc4)ccc3o2)CC1
45 | 667 | CCCn1cnc2cc(-c3noc(CNC(=O)c4ccccc4)n3)ccc21
46 | 828 | Cc1ccc(CNC(=O)c2cccn2Cc2noc(C)n2)cc1
47 | 838 | CCc1ccc(NC(=O)N2CCC(n3cnc4c(C)cccc4c3=O)CC2)cc1
48 | 904 | CCC1Oc2ccc(S(=O)(=O)N3CCC(C(=O)NC4CCC(C)CC4)CC3)cc2NC1=O (stereo unspecified)
49 | 665 | CCn1c(N2CCCC(C(=O)NCCCOC)C2)cc(=O)n(C)c1=O (stereo unspecified)
50 | 976 | O=C(Nc1ccccc1)C1CCCN(S(=O)(=O)Cc2ccccc2Cl)C1 (stereo unspecified)
51 | 1050 | Cc1cc(C)cc(C(=O)Nc2ccc(N3CCN(c4ccccc4)C3=O)nc2)c1
52 | 595 | CC(=O)N(C)CCc1noc(C2CN(C(=O)c3c(C)noc3C)C2)n1
53 | 614 | CN1CCN(CCCNC(=O)CCc2cn(-c3ccccc3)nc2-c2ccc3c(c2)OCO3)CC1
54 | 784 | CCOC(=O)CNC(=O)N1CCCC1c1cccc(C)c1 (stereo unspecified)
55 | 635 | O=C(Cc1cn2cc(Br)ccc2n1)N1CCc2ccccc2C1
56 | 1020 | Cc1nc(-c2csc(S(=O)(=O)N3CCCC(C(=O)Nc4cccc(Cl)c4C)C3)c2)no1 (stereo unspecified)
57 | 893 | COC(=O)c1cc(S(=O)(=O)N2CCCC2C(=O)Nc2nc3ccc(OC)cc3s2)cn1C (stereo unspecified)
58 | 1020 | CC(C)c1noc(-c2cc(=O)n(CC(=O)NCc3ccc(Cl)cc3)c3ccccc23)n1
59 | 820 | CO[C@H]1C(=O)N(C(C)C)[C@H]1C1CCN(C(=O)Nc2ccc(C)c(C)c2)CC1
60 | 648 | O=C(Cn1ncc2c(N3CCN(c4ccccn4)CC3)ncnc21)Nc1cccc(Br)c1
61 | 682 | O=C1NCCCn2cc(S(=O)(=O)Nc3ccc(Cl)cc3)cc21
62 | 788 | O=C(C1CCCN(c2ccc(-c3ccccc3)nn2)C1)N1CCN(c2ccccc2F)CC1 (stereo unspecified)
63 | 616 | CCn1ccc(C(=O)Nc2ccc3ncnc(N4CCCC4)c3c2)n1
64 | 878 | CCn1ncn2cc(S(=O)(=O)NCc3ccc(Cl)cc3)cc2c1=O
65 | 566 | Cc1cc(C)n(CCNC(=O)c2cnccn2)n1

Row | RP-LC retention time [s] | Structure (SMILES)
66 | 823 | CC1=C(c2ccc(Cl)cc2)S(=O)(=O)N=C1N1CCCN(C(=O)c2ccco2)CC1
67 | 659 | COC(=O)C(C)NC(=O)N1CCN(c2nc3ccccc3n2Cc2ccccc2)CC1 (stereo unspecified)
68 | 940 | CCc1cccc(NC(=O)Cn2nc(N3CCSCC3)c3ccccc3c2=O)c1
69 | 880 | CCn1ccc2cc(S(=O)(=O)N3CCC(C(=O)N4CCN(c5ncccn5)CC4)CC3)ccc21
70 | 554 | CCN(CC)CCNC(=O)c1ccc2c(c1)N(S(C)(=O)=O)CC2
71 | 598 | O=C(c1cc(=O)[nH]c2ccccc12)N1CCCC1
72 | 767 | COc1ccc(OC)c(NC(=O)c2cn3c(n2)CSCC3)c1
73 | 873 | CCN(CC)C(=O)N1CC(Oc2cccc(-c3nc(C)no3)c2)C1
74 | 655 | CC(C)(C)NC(=O)N1CCC(CNC(=O)c2cccs2)CC1
75 | 733 | CCCNC(=O)C1CCCN(c2ccc(SCC(=O)Nc3ccc(C)cc3C)nn2)C1 (stereo unspecified)
76 | 590 | COCCn1c(C2CCN(S(=O)(=O)c3ccc(F)c(Cl)c3)C2)nc2ccncc21 (stereo unspecified)
77 | 789 | CCCn1cc(CCNS(=O)(=O)c2cccc(C#N)c2)c2cccnc21
78 | 690 | CCCCCNC(=O)c1cn(-c2ccc(NC(C)=O)cn2)cn1
79 | 646 | CCCNC(=O)c1cc(C)nc2ccc(F)cc12
80 | 815 | Cc1ccc(NC(=O)Nc2ccccc2C(N)=O)cc1
81 | 727 | Cc1cc(C)cc(NS(=O)(=O)c2cc3n(c2)CCN(C)C3=O)c1
82 | 770 | Cc1ccc(-c2nc3ccccn3c2CCC(=O)Nc2ccc(Br)cc2C)cc1
83 | 713 | CN(C)c1ccc(C(=O)NC2CCN(c3ccccc3)C2=O)cc1 (stereo unspecified)
84 | 991 | CCOC(=O)c1c(C)[nH]c(CN(Cc2ccc3c(c2)OCO3)C(=O)c2ccco2)c1C
85 | 581 | CC(=O)Nc1nc(N2CCC(C(=O)NCc3cccnc3)CC2)sc1C(=O)N1CCCC1
86 | 900 | Cc1cc(OCC(=O)Nc2cc(F)ccc2F)nc(N2CCN(c3ccccc3)CC2)n1
87 | 872 | O=C(CC1CCN(S(=O)(=O)c2ccc(Cl)s2)CC1)N1CCN(c2ncccn2)CC1
88 | 803 | CCOC(=O)c1c(C)n(C)c2ccc(O)cc12
89 | 865 | Cc1noc2ncnc(N3CCC(C(=O)N4CCCc5ccccc54)CC3)c12
90 | 1070 | COC(=O)c1sccc1NC(=O)Cn1c(C)cc(C)c(-c2nc(-c3ccc(F)cc3)no2)c1=O
91 | 889 | COc1ccc(-c2nnc(CC(=O)NCCC3=CCCCC3)o2)cc1
